This is an account of results in patent US9073895B2 (Boehringer Ingelheim International GmbH, priority 2010, dated 2015).

The structures appear in SMILES notation. pIC50: −log10 of the molar value. A value given as a limit tells only on which side of the number the result lay.

The pIC50 is the IC50 on a negative log10 scale, so that one unit is a factor of ten.

Test [1] has as its system synthesis of LTB4 in human whole blood. The test can be described thus: Human whole blood LTB4 production inhibition assay. The format is cell-based. Particulars: heparinized human whole blood, calcimycin 20 μM, plasma LTB4; read-out: HuWB IC50. The method, boiled down: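 Whole-blood cellular format, heparinized human donors: 15 min compound pretreatment, then 30 min calcimycin stimulation (20 μM final), both at 37° C. Low-speed centrifugation yields plasma, in which LTB4 is read by homogeneous time-resolved fluorescence immunoassay.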

In test [2] the target is T1, recombinant human FLAP protein (Homo sapiens, UniProt P20292).
T1 construct: made in house; host or cells: Sf9 insect cells (membrane fraction, 100,000 x g pellet)
T1 sequence (P20292 1-161): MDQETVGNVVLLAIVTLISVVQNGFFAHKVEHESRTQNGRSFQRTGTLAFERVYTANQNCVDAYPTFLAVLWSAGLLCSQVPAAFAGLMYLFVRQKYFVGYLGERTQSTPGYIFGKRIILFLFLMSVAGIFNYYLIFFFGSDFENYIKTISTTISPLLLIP
The test can be described thus: FLAP binding assay (SPA, displacement of [125I]L-691,831). To be noted: membranes of sf9 cells expressing human FLAP, [125I]L-691,831 probe; read-out: hFLAP binding IC50. The method, boiled down: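 Membranes from sf9 cells expressing human FLAP (5 μg/well) were bound to WGA SPA beads (200 μg/well). Nonspecific binding was defined with 10 μM unlabelled L-691,831.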
On the technique in general: In a radioligand displacement assay an active substance lowers the binding of a labelled ligand.

Turning to `Nc1ncc(-c2ccc(C3(C(=O)Nc4cc(-c5ccncc5)no4)CCOCC3)cc2)cn1` [Example 58, 4-[4-(2-aminopyrimidin-5-yl)phenyl]-N-[3-(pyridin-4-yl)-1,2-oxazol-5-yl]tetrahydro-2H-pyran-4-carboxamide], the pIC50 is less than 5.52 in test [1] and 6.77 in test [2].
Consider `Nc1ncc(-c2ccc(C3(C(=O)Nc4ccc(N5CCOCC5)c(Cl)c4)CCOCC3)cc2)cn1` [Example 72, 4-[4-(2-aminopyrimidin-5-yl)phenyl]-N-[3-chloro-4-(mopholin-4-yl)phenyl]tetrahydro-2H-pyran-4-carboxamide], for which the pIC50 was 6.61 in test [1] and 7.55 in test [2].
Consider `CS(=O)(=O)c1ccc(NC(=O)C2(c3ccc(-c4cnc(N)nc4)cc3)CCC2)cc1` [Example 233, 1-[4-(2-aminopyrimidin-5-yl)phenyl]-N-[4-(methylsulfonyl)phenyl]cyclobutane-carboxamide], for which the pIC50 in test [1] was 6.80; in test [2], 8.19.
Consider `N#Cc1ccc(NC(=O)C2(c3ccc(-c4cnc(N)nc4)cc3)CCOCC2)cc1C(F)(F)F` [Example 40, 4-[4-(2-aminopyrimidin-5-yl)phenyl]-N-[4-cyano-3-(trifluoromethyl)phenyl] tetrahydro-2H-pyran-4-carboxamide], for which the figures for the pIC50 in test [1] and in test [2] were 5.91 and 7.54, respectively.
Consider `COc1ccc(-c2ccc(NC(=O)C(C)(c3ccc(-c4cnc(N)nc4)cc3)C(C)C)nc2)cn1` (stereo not shown) [Example 163, 2-[4-(2-aminopyrimidin-5-yl)phenyl]-N-(6'-methoxy-3,3'-bipyridin-6-yl)-2,3-dimethylbutanamide], for which the results for the pIC50 in test [1] and in test [2] were 6.39 and 8.17, respectively.
Take `COc1ccc(-c2ccc(NC(=O)C3(c4ccc(-c5cnc(N)nc5)cc4)CCOCC3)nc2)cn1` [Example 134, 4-[4-(2-aminopyrimidin-5-yl)phenyl]-N-(6'-methoxy-3,3'-bipyridin-6-yl)tetrahydro-2H-pyran-4-carboxamide]: the pIC50 was 6.19 in test [1] and 7.76 in test [2].
With `CCN(CC)S(=O)(=O)c1cccc(NC(=O)C2(c3ccc(-c4cnc(N)nc4)cc3)CCOCC2)c1` [Example 78, 4-[4-(2-aminopyrimidin-5-yl)phenyl]-N-[3-(diethylsulfamoyl)phenyl] tetrahydro-2H-pyran-4-carboxamide], the pIC50 in test [1] was less than 5.52; in test [2], 6.95.
For `N#Cc1ccc(NC(=O)C2(c3ccc(-c4cnc(N)nc4)cc3)CCOCC2)nc1` [Example 32, 4-[4-(2-aminopyrimidin-5-yl)phenyl]-N-(5-cyanopyridin-2-yl)tetrahydro-2H-pyran-4-carboxamide], the pIC50 in test [1] is 5.95; in test [2], 7.33.
The corresponding values for `Nc1ncc(-c2ccc(C3(C(=O)Nc4ccc(OCc5ccccc5)cc4)CCOCC3)cc2)cn1` [Example 85, 4-[4-(2-aminopyrimidin-5-yl)phenyl]-N-[4-(benzyloxy)phenyl]tetrahydro-2H-pyran-4-carboxamide] are 6.07 and 7.90.
The corresponding values for `CC(C)(C)c1noc(NC(=O)C2(c3ccc(-c4cnc(N)nc4)cc3)CCCCC2)n1` [Example 126, 1-[4-(2-aminopyrimidin-5-yl)phenyl]-N-(3-tert-butyl-1,2,4-oxadiazol-5-yl)cyclohexanecarboxamide] are 4.92 and 6.74.
Turning to `Nc1ncc(-c2ccc(C3(C(=O)Nc4ccc(C(F)(F)F)cn4)CCOCC3)cc2)cn1` [Example 23, 4-[4-(2-aminopyrimidin-5-yl)phenyl]-N-[5-(trifluoromethyl)pyridin-2-yl]tetrahydro-2H-pyran-4-carboxamide], the results for the pIC50 in test [1] and in test [2] were less than 5.52 and 7.22, respectively.
For `Cc1nc(-c2ccc(NC(=O)C3(c4ccc(-c5cnc(N)nc5)cc4)CCOCC3)cc2)cs1` [Example 121, 4-[4-(2-aminopyrimidin-5-yl)phenyl]-N-[4-(2-methyl-1,3-thiazol-4-yl)phenyl]tetrahydro-2H-pyran-4-carboxamide], the pIC50 is 5.72 in test [1] and 7.72 in test [2].
Turning to `COc1ccc(-c2ccc(NC(=O)C3(c4ccc(-c5cnc(N)c(CO)c5)cc4)CCOCC3)nc2)cn1` [Example 170], the pIC50 in test [1] was 6.05; in test [2], 8.01.
Consider `Cc1cnccc1NC(=O)C1(c2ccc(-c3cnc(N)nc3)cc2)CCC1` [Example 196, 1-[4-(2-aminopyrimidin-5-yl)phenyl]-N-(3-methylpyridin-4-yl)cyclobutanecarboxamide], for which the pIC50 in test [1] was 5.54; in test [2], 7.30.
For the compound `Nc1ncc(-c2ccc(C3(C(=O)Nc4ccc(-c5cccnc5)cn4)CCC3)cc2)cn1` [Example 239, 1-[4-(2-aminopyrimidin-5-yl)phenyl]-N-(3,3'-bipyridin-6-yl)cyclobutanecarboxamide], the values for the negative-log IC50 (pIC50) in test [1] and in test [2] were 6.84 and 8.67, respectively.
For the compound `Cc1nc(-c2ccc(NC(=O)C(c3ccc(-c4cnc(N)nc4)cc3)C(C)(C)C)nc2)cs1` (stereo not shown) [Example 90, 2-[4-(2-aminopyrimidin-5-yl)phenyl]-3,3-dimethyl-N-[5-(2-methyl-1,3-thiazol-4-yl)pyridin-2-yl]butanamide], the pIC50 in test [1] was 5.68; in test [2], 7.50.
For `CC(C)C(C)(C(=O)Nc1ccncc1)c1ccc(-c2cnc(N)nc2)cc1` (stereo not shown) [Example 169, 2-[4-(2-aminopyrimidin-5-yl)phenyl]-2,3-dimethyl-N-(pyridin-4-yl)butanamide], in that order: 6.48 and 8.28.
Turning to `Cc1cc(NC(=O)C2(c3ccc(-c4cnc(N)nc4)cc3)CCOCC2)cc(C(F)(F)F)c1` [Example 46, 4-[4-(2-aminopyrimidin-5-yl)phenyl]-N-[3-methyl-5-(trifluoromethyl)phenyl] tetrahydro-2H-pyran-4-carboxamide], the pIC50 in test [1] was less than 5.52; in test [2] it was 6.74.
In the case of `COc1cncc(-c2ccc(NC(=O)C3(c4ccc(-c5cnc(N)c(CO)c5)cc4)CCOCC3)nc2)c1` [Example 171, 4-{4-[6-amino-5-(hydroxymethyl)pyridin-3-yl]phenyl}-N-(5'-methoxy-3,3'-bipyridin-6-yl)tetrahydro-2H-pyran-4-carboxamide], the pIC50 in test [1] is 6.25; in test [2] it was 8.69.
For `Nc1ncc(-c2ccc(C3(C(=O)Nc4ccccc4)CCC3)cc2)cn1` [Example 203, 1-[4-(2-aminopyrimidin-5-yl)phenyl]-N-phenylcyclobutanecarboxamide], in that order: 5.49 and 7.86.
`CCOC(=O)c1ccc(NC(=O)C2(c3ccc(-c4cnc(N)nc4)cc3)CCC2)nc1` [Example 237, ethyl 6-[({1-[4-(2-aminopyrimidin-5-yl)phenyl]cyclobutyl}carbonyl)amino]pyridine-3-carboxylate]: the pIC50 was 7.37 in test [1] and 8.72 in test [2].
Turning to `Cc1nc2cc(NC(=O)C3(c4ccc(-c5cnc(N)nc5)cc4)CCOCC3)ccc2s1` [Example 75, 4-[4-(2-aminopyrimidin-5-yl)phenyl]-N-(2-methyl-1,3-benzothiazol-5-yl)tetrahydro-2H-pyran-4-carboxamide], the results for the pIC50 in test [1] and in test [2] were less than 5.52 and 7.17, respectively.
Regarding `Nc1ncc(-c2ccc(C3(C(=O)Nc4ccncc4)CCCC3)cc2)cn1` [Example 230, 1-[4-(2-aminopyrimidin-5-yl)phenyl]-N-(pyridin-4-yl)cyclopentanecarboxamide], the negative-log IC50 (pIC50) was 6.16 in test [1] and 7.67 in test [2].
